Source: ChEMBL document CHEMBL3885861, “Open TG-GATES”

Species on record: Rattus norvegicus
Assay: Open TG-GATES - Regimen: Single
Assay type: toxicity, organism-based, Sprague-Dawley
Set-up: regimen Single, gender Male, age 6 weeks
Conditions: in vivo, po, 0 mg/kg, route gavage, dose level Control; for APTT / Bas / Eos / Fbg / Hb / Ht / Lym / MCH / MCHC / MCV / Mono / Neu / PT / Plat / RBC / Ret / WBC: tissue Blood; for KIDNEY_L / KIDNEY_R / KIDNEY_TOTAL: tissue Kidney; for LIVER: tissue Liver; for A/G / ALP / ALT / AST / BUN / CRE / Ca / Cl / DBIL / GLC / IP / K / LDH / Na / PL / RALB / TBIL / TC / TG / TP / gamma-GTP: tissue Plasma

Molecule CN(C)CCC(c1ccc(Cl)cc1)c1ccccn1 (configuration not stated) [CHLORPHENIRAMINE] has a TERMINAL_BW (3 h) of 198.4 g, an APTT (3 h) of 18.8 s and a Bas (3 h) of 0.2%. For the same molecule, the Eos (3 h) was 0.8%, the Fbg (3 h) was 288.8 mg/dL and the Hb (3 h) was 12.6 g/dL. For the same molecule, the Ht (3 h) was 39.4%, the Lym (3 h) was 77.4% and the MCH (3 h) was 20.8 pg. It also gave an MCHC (3 h) of 32.1%, an MCV (3 h) of 64.9 fL and a Mono (3 h) of 2.8%. For the same molecule, the Neu (3 h) was 18.2%, the PT (3 h) was 14.7 s and the Plat (3 h) was 109.9 x10_4/uL. It also gave an RBC (3 h) of 606.2 x10_4/ul, a Ret (3 h) of 9.4% and a WBC (3 h) of 120.9 x10_2/uL. For the same molecule, the KIDNEY_L (3 h) was 0.9 g, the KIDNEY_R (3 h) was 0.9 g and the KIDNEY_TOTAL (3 h) was 1.7 g. The LIVER (3 h) was 9.2 g, the A/G (3 h) was 0.9 and the ALP (3 h) was 1344.2 IU/L. It also gave an ALT (3 h) of 46 IU/L, an AST (3 h) of 73.6 IU/L and a BUN (3 h) of 9.2 mg/dL. The CRE (3 h) was 0.2 mg/dL, the Ca (3 h) was 10.5 mg/dL and the Cl (3 h) was 107.2 meq/L. The DBIL (3 h) was 0.008 mg/dL, the GLC (3 h) was 179 mg/dL and the IP (3 h) was 9.7 mg/dL. For the same molecule, the K (3 h) was 4.3 meq/L, the LDH (3 h) was 215.8 IU/L and the Na (3 h) was 142.8 meq/L. The PL (3 h) was 137.2 mg/dL, the RALB (3 h) was 2.5 g/dL and the TBIL (3 h) was 0.054 mg/dL. The TC (3 h) was 79.8 mg/dL, the TG (3 h) was 46.6 mg/dL and the TP (3 h) was 5.3 g/dL. For the same molecule, the gamma-GTP (3 h) was 1.4 IU/L, the TERMINAL_BW (6 h) was 196.5 g and the APTT (6 h) was 17.5 s. The Bas (6 h) was 0%, the Eos (6 h) was 0.6% and the Fbg (6 h) was 303.6 mg/dL. The Hb (6 h) was 12.8 g/dL, the Ht (6 h) was 40.3% and the Lym (6 h) was 76.8%. The MCH (6 h) was 20.7 pg, the MCHC (6 h) was 31.8% and the MCV (6 h) was 65.1 fL. For the same molecule, the Mono (6 h) was 3.2%, the Neu (6 h) was 18.8% and the PT (6 h) was 14.8 s. It also gave a Plat (6 h) of 117.5 x10_4/uL, an RBC (6 h) of 618.2 x10_4/ul and a Ret (6 h) of 9.5%. It also gave a WBC (6 h) of 82.5 x10_2/uL, a KIDNEY_L (6 h) of 0.9 g and a KIDNEY_R (6 h) of 0.9 g. It also gave a KIDNEY_TOTAL (6 h) of 1.7 g, an LIVER (6 h) of 8.7 g and an A/G (6 h) of 0.9. For the same molecule, the ALP (6 h) was 1456.6 IU/L, the ALT (6 h) was 44.8 IU/L and the AST (6 h) was 76.2 IU/L. The BUN (6 h) was 10.2 mg/dL, the CRE (6 h) was 0.2 mg/dL and the Ca (6 h) was 10.8 mg/dL. It also gave a Cl (6 h) of 106.6 meq/L, a DBIL (6 h) of 0.008 mg/dL and a GLC (6 h) of 190.6 mg/dL. For the same molecule, the IP (6 h) was 10.7 mg/dL, the K (6 h) was 4.2 meq/L and the LDH (6 h) was 140.2 IU/L. For the same molecule, the Na (6 h) was 143 meq/L, the PL (6 h) was 135.2 mg/dL and the RALB (6 h) was 2.5 g/dL. For the same molecule, the TBIL (6 h) was 0.05 mg/dL, the TC (6 h) was 81 mg/dL and the TG (6 h) was 49.2 mg/dL. It also gave a TP (6 h) of 5.4 g/dL, a gamma-GTP (6 h) of 1.2 IU/L and a TERMINAL_BW (9 h) of 193.9 g. It also gave an APTT (9 h) of 19.1 s, a Bas (9 h) of 0% and an Eos (9 h) of 0.8%. It also gave a Fbg (9 h) of 294.4 mg/dL, a Hb (9 h) of 12.7 g/dL and a Ht (9 h) of 39.4%. The Lym (9 h) was 75.6%, the MCH (9 h) was 21.6 pg and the MCHC (9 h) was 32.2%. The MCV (9 h) was 67.1 fL, the Mono (9 h) was 2.8% and the Neu (9 h) was 19.8%. The PT (9 h) was 15 s, the Plat (9 h) was 107.8 x10_4/uL and the RBC (9 h) was 587.6 x10_4/ul. The Ret (9 h) was 9.5%, the WBC (9 h) was 66.4 x10_2/uL and the KIDNEY_L (9 h) was 0.9 g. It also gave a KIDNEY_R (9 h) of 0.9 g, a KIDNEY_TOTAL (9 h) of 1.7 g and an LIVER (9 h) of 7.7 g. For the same molecule, the A/G (9 h) was 0.9, the ALP (9 h) was 1415.8 IU/L and the ALT (9 h) was 38.6 IU/L. The AST (9 h) was 73.8 IU/L, the BUN (9 h) was 8.2 mg/dL and the CRE (9 h) was 0.1 mg/dL. The Ca (9 h) was 10.2 mg/dL, the Cl (9 h) was 106.6 meq/L and the DBIL (9 h) was 0.008 mg/dL. For the same molecule, the GLC (9 h) was 161.6 mg/dL, the IP (9 h) was 10.7 mg/dL and the K (9 h) was 4 meq/L. For the same molecule, the LDH (9 h) was 116.2 IU/L, the Na (9 h) was 143.8 meq/L and the PL (9 h) was 131.6 mg/dL. The RALB (9 h) was 2.5 g/dL, the TBIL (9 h) was 0.054 mg/dL and the TC (9 h) was 76.2 mg/dL. It also gave a TG (9 h) of 39.4 mg/dL, a TP (9 h) of 5.4 g/dL and a gamma-GTP (9 h) of 1.2 IU/L. It also gave a TERMINAL_BW (24 h) of 212.2 g, an APTT (24 h) of 19.7 s and a Bas (24 h) of 0%. It also gave an Eos (24 h) of 1%, a Fbg (24 h) of 292.6 mg/dL and a Hb (24 h) of 13.3 g/dL. It also gave a Ht (24 h) of 41.2%, a Lym (24 h) of 80.6% and an MCH (24 h) of 21.2 pg. It also gave an MCHC (24 h) of 32.2%, an MCV (24 h) of 66 fL and a Mono (24 h) of 3.6%. It also gave a Neu (24 h) of 14.2%, a PT (24 h) of 14.7 s and a Plat (24 h) of 116.5 x10_4/uL. It also gave an RBC (24 h) of 624.8 x10_4/ul, a Ret (24 h) of 8.4% and a WBC (24 h) of 75.5 x10_2/uL. It also gave a KIDNEY_L (24 h) of 0.9 g, a KIDNEY_R (24 h) of 0.9 g and a KIDNEY_TOTAL (24 h) of 1.8 g. The LIVER (24 h) was 10 g, the A/G (24 h) was 0.8 and the ALP (24 h) was 1528.4 IU/L. It also gave an ALT (24 h) of 46 IU/L, an AST (24 h) of 70.2 IU/L and a BUN (24 h) of 14.6 mg/dL. It also gave a CRE (24 h) of 0.2 mg/dL, a Ca (24 h) of 11 mg/dL and a Cl (24 h) of 106.4 meq/L. It also gave a DBIL (24 h) of 0.012 mg/dL, a GLC (24 h) of 190.6 mg/dL and an IP (24 h) of 8.8 mg/dL. The K (24 h) was 4.3 meq/L, the LDH (24 h) was 94.4 IU/L and the Na (24 h) was 143 meq/L. It also gave a PL (24 h) of 156.8 mg/dL, an RALB (24 h) of 2.7 g/dL and a TBIL (24 h) of 0.04 mg/dL. It also gave a TC (24 h) of 85 mg/dL, a TG (24 h) of 86 mg/dL and a TP (24 h) of 5.8 g/dL. It also gave a gamma-GTP (24 h) of 1.4 IU/L.
